Counter-ions that a name gives are not always drawn.
Test system: not given
Experiment: not given
Details: not given
In the case of COc1ccc(-c2cccs2)cc1C=CC(=O)c1ccc(Cl)c(Cl)c1O.[Na], the melting point is reported as > 260 °C. A melting point of 255 to 257 °C was found for COc1cc(OCC(=O)O)c(C=CC(=O)c2cc(OC)c(OC)c(OC)c2)cc1-c1cc2ccccc2s1 (as salt: sodium) [3-[5-(benzo[b]thien-2-yl)-2-carboxymethoxy-4-methoxyphenyl]-1-(3,4,5-trimethoxyphenyl)-2-propen-1-one] in this work. A melting point of 150 to 151 °C was found for COc1cc(C(=O)C=Cc2cc(OC)c(OC)c(-c3cc4ccccc4s3)c2)cc(OC)c1OC [Example 4, 3-[5-(benzo[b]thien-2-yl)-3,4-dimethoxyphenyl]-1-(3,4,5-trimethoxyphenyl)-2-propen-1-one] in this work. A melting point of 75 to 80 °C was found for COc1cc(OC)c(-c2cccs2)cc1C=CC(=O)c1cc(OC)c(OC)c(OC)c1 [Example 5, 3-[2,4-dimethoxy-5-(thien-2-yl)phenyl]-1-(3,4,5-trimethoxyphenyl)-2-propen-1-one] in this work. A melting point of 54 to 73 °C was found for COc1ccc(-c2cccs2)cc1C=CC(=O)c1cc(OC)c(OCc2cccs2)cc1OC [Example 17, 3-[2-methoxy-5-(thien-2-yl)phenyl]-1-(2,5-dimethoxy-4-(thien-2-ylmethoxy)phenyl)-2-propen-1-one] in this work. A melting point of 150 to 155 °C was found for COc1ccc(-c2cccs2)cc1C=CC(=O)c1ccc(I)cc1OC [Example 18, 3-[2-methoxy-5-(thien-2-yl)phenyl]-1-(4-iodo-2-methoxyphenyl)-2-propen-1-one] in this work. A melting point of 97 to 107 °C was found for COc1cccc(-c2ccc(C(=O)C=Cc3cc(-c4cccs4)ccc3OC)c(OC)c2)c1 [Example 21, 3-[2-methoxy-5-(thien-2-yl)phenyl]-1-[2-methoxy-4-(3-methoxyphenyl)phenyl]-2-propen-1-one] in this work. A melting point of 100 to 105 °C was found for COc1ccc(-c2cccs2)cc1C=CC(=O)c1ccc(F)c(F)c1 [Example 35, 3-[2-methoxy-5-(thien-2-yl)phenyl]-1-(3,4-difluorophenyl)-2-propen-1-one] in this work. A melting point of 152 to 163 °C was found for COc1ccc(-c2cccs2)cc1C=CC(=O)c1ccc(Cl)c(Cl)c1O [Example 36, 3-[2-methoxy-5-(thien-2-yl)phenyl]-1-(3,4-dichloro-2-hydroxyphenyl)-2-propen-1-one] in this work. A melting point of 111 to 113 °C was found for COc1cc(OC)c(-c2cc3ccccc3s2)cc1C=CC(=O)c1cc(OC)c(OCCN2CCOCC2)c(OC)c1 [Example 43, 3-[5-(benzo[b]thien-2-yl)-2,4-dimethoxyphenyl]-1-[3,5-dimethoxy-4-(2-morpholinoethoxy)phenyl]-2-propen-1-one] in this work. A melting point of 145 to 153 °C was found for COc1cc(OC)c(-c2cc3ccccc3s2)cc1C=CC(=O)c1cc(OC)c(OCC(=O)O)c(OC)c1 [Example 44, 3-[5-(benzo[b]thien-2-yl)-2,4-dimethoxyphenyl]-1-(4-carboxymethoxy-3,5-dimethoxyphenyl)-2-propen-1-one] in this work. A melting point of 120 to 124 °C was found for COc1cc(C=CC(=O)c2ccc(OC)c(OC)c2OC)cc(-c2cc3ccccc3s2)c1OC [Example 49, 3-[5-(benzo[b]thien-2-yl)-3,4-dimethoxyphenyl]-1-(2,3,4-trimethoxyphenyl)-2-propen-1-one] in this work. A melting point of 30 to 50 °C was found for COc1ccc(-c2cccs2)cc1/C=C/C(=O)c1ccc(-c2cccs2)cc1OC [Example 58] in this work.

Test system: human aortic smooth muscle cells
Experiment: In vitro smooth muscle cell activity assay (3H-thymidine incorporation, serum stimulated)
Format: cell-based
Details: human aortic smooth muscle cells stimulated with 5% serum
Description: Cultured human aortic smooth muscle cells were seeded in 24-well plates. When cells reached 80% confluency, they were made quiescent by changing media to 0.2% serum (as compared to 5% serum in normal culture media) for 48 hours. The cells were then stimulated by addition of 5% serum in the presence or absence of compounds dissolved in DMSO. To establish a dose curve and IC50 for each compound, multiple concentrations in 5-fold increments were used. After 20 hr incubation, 3H-thymidine (0.5 μCi/per well) was added to the cells for 4 hours of labeling. Washed cells were then lysed in NaOH and, the amount of 3H-thymidine incorporation was determined. Results are expressed as IC50 values (the amount of compound (µM) required to achieve a 50% reduction compared to control (cells stimulated with 5% serum only)).
An IC50 of 450 nM was found for COc1cc(OC)c(-c2cccs2)cc1C=CC(=O)c1cc(OC)c(OC)c(OC)c1 [Example 5, 3-[2,4-dimethoxy-5-(thien-2-yl)phenyl]-1-(3,4,5-trimethoxyphenyl)-2-propen-1-one] in this work. An IC50 of 1250 nM was found for COc1cc(OC)c(-c2cccs2)cc1C=CC(=O)c1ccc(OC)c(OC)c1OC [Example 41, 3-[2,4-dimethoxy-5-(thien-2-yl)phenyl]-1-(2,3,4-trimethoxyphenyl)-2-propen-1-one] in this work. An IC50 of 1250 nM was found for COc1cc(OCC(=O)O)c(/C=C/C(=O)c2cc(OC)c(OC)c(OC)c2)cc1-c1cc2ccccc2s1 [Example 62, 3-[5-(Benzo[b]thien-2-yl)-2-carboxymethoxy-4-methoxyphenyl]-1-(3,4,5-trimethoxyphenyl)-2-propen-1-one, sodium salt] in this work.

From patent US20060258735A1, “1,3-Bis-(substituted-phenyl)-2-propen-1-ones and their use to treat VCAM-1 mediated disorders” (priority 2000, published 2006)
